Source: publication PMC6572064, “Discovery of 2-(1-(3-(4-Chloroxyphenyl)-3-oxo- propyl)pyrrolidine-3-yl)-1H-benzo[d]imidazole-4-carboxamide: A Potent Poly(ADP-ribose) Polymerase (PARP) Inhibitor for Treatment of Cancer” (Molecules, 2019)
Read-outs that look alike come from different tables or passages of the source.

Tests used:
PARP-1 = molecular target: T1, PARP-1 (Homo sapiens, UniProt P09874); assay: PARP-1 inhibition assay (PARP-1 Chemiluminescent Assay Kit, BPS Bioscience); assay type: biochemical
T1 construct: purchased BPS Bioscience 80569
T1 sequence (P09874 whole entry): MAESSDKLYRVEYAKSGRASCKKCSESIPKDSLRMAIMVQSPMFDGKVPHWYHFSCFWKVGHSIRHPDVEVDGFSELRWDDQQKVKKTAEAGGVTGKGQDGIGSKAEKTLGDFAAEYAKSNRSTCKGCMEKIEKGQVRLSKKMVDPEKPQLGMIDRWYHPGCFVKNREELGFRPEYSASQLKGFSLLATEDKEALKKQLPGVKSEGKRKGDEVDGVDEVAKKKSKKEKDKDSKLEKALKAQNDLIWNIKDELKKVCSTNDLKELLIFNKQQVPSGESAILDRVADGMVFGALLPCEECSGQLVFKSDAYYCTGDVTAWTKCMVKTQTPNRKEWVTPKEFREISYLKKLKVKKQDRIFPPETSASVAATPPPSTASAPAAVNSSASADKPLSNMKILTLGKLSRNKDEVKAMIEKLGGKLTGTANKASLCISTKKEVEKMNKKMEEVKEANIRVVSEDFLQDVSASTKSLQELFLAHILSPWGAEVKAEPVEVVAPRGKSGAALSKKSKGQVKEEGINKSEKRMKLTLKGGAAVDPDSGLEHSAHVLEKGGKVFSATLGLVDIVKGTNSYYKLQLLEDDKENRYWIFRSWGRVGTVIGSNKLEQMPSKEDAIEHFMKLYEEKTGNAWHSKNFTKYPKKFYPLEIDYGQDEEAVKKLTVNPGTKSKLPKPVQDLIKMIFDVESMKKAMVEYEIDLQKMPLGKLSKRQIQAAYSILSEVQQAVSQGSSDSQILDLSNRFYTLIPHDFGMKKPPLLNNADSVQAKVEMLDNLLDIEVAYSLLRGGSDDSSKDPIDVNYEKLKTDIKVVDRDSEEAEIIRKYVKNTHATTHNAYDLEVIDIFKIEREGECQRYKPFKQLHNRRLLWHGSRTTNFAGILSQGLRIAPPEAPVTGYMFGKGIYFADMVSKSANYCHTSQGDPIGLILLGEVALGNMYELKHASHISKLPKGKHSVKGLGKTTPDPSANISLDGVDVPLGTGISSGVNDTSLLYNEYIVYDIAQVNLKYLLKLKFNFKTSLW
Procedure: (§1) The PARP-1 and PARP-2 inhibition assays were performed in outsourcing, by a CRO company, Shanghai Medicilon Inc. (Shanghai, China). […] Briefly, PARP-1 or PARP-2 biotinylated substrate was incubated with compounds or solvent control at varying concentrations and an assay buffer containing the PARP-1 or PARP-2 enzyme.

PARP-2 = molecular target: T2, PARP-2 (Homo sapiens, UniProt Q9UGN5); assay: PARP-2 inhibition assay (PARP-2 Chemiluminescent Assay Kit, BPS Bioscience); assay type: biochemical
T2 construct: purchased BPS Bioscience 80552
T2 sequence (Q9UGN5 whole entry): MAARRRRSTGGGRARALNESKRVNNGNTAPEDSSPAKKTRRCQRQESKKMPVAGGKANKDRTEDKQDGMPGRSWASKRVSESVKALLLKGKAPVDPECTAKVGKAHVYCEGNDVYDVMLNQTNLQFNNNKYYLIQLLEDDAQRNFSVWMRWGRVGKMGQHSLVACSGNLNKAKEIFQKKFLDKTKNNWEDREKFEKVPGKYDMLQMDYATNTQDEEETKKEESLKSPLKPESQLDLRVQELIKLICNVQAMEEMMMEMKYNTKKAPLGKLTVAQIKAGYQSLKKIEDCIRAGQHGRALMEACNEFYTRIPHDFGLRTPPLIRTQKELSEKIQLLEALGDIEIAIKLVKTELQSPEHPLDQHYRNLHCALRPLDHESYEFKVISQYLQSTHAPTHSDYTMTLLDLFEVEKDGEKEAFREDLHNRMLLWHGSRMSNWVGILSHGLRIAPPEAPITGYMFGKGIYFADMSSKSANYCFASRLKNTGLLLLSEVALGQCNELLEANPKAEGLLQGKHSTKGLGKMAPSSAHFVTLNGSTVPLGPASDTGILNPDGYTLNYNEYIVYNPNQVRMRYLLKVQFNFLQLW
Procedure: as §1

[1] = system: MDA-MB-436 (a BRCA-1-mutated breast cancer cell line); assay: Cell proliferation assay, three-day, CellTiter-Glo, MDA-MB-436; assay type: cell-based; conditions: for IC50 / inhibition at 0.00508 µM / inhibition at 0.0152 µM / inhibition at 0.0457 µM / inhibition at 0.41 µM / inhibition at 1.23 µM / inhibition at 3.7 µM / inhibition at 11.11 µM / inhibition at 33.33 µM / inhibition at 100 µM: Homo sapiens
Procedure, shortened: (§2)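 Luminescent ATP read-out (CellTiter-Glo, 60 min at room temperature) quantified viability after a 72 h compound exposure at 37 °C, 5% CO2. Compounds, diluted from DMSO stocks into growth medium, were added to cells plated the previous day.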

[2] = system: CAPAN-1 (a BRCA-2-mutated pancreatic cancer cell line); assay: Cell proliferation assay, three-day, CellTiter-Glo, CAPAN-1; assay type: cell-based
Procedure, shortened: as §2

[3] = Homo sapiens, CAPAN-1, read-out: Inh % 1
[4] = Homo sapiens, CAPAN-1, read-out: Inh % 2

Q: What does the source list for `NC(=O)c1cccc2[nH]c(C3CCN(CCC(O)c4ccccc4)C3)nc12` (centres unmarked) [Compound 5cg, 2-(1-(3-Hydroxy-3-phenylpropyl)pyrrolidin-3-yl)-1H-benzo[d]imi-dazole-4-carboxamide]?
A: inhibition at 0.01 µM (PARP-1; read-out: 10 nM inhibition% PAPR-1): -2.11%; inhibition at 0.01 µM (PARP-1; read-out: PARP-1 Inhibition % (10 nM)): -2.1%; inhibition at 0.01 µM (PARP-2; read-out: 10 nM inhibition% PAPR-2): 6.45%; inhibition at 0.01 µM (PARP-2; read-out: PARP-2 Inhibition % (10 nM)): 6.5%; IC50 ([1]; MDA-MB-436): 74.1 µM; IC50 ([1]; MDA-MB-436, 72 h): 74.1 µM; IC50 ([1]; MDA-MB-436, 72 h, read-out: MDA-MB-436 IC50 (μM)): 74.1 µM; inhibition at 0.00508 µM ([1]; MDA-MB-436, read-out: Inh % 1): 2.1%; inhibition at 0.0152 µM ([1]; MDA-MB-436, read-out: Inh % 1): -3.5%; inhibition at 0.0457 µM ([1]; MDA-MB-436, read-out: Inh % 1): -5.7%; inhibition at 0.41 µM ([1]; MDA-MB-436, read-out: Inh % 1): -16.8%; inhibition at 1.23 µM ([1]; MDA-MB-436, read-out: Inh % 1): -6%; inhibition at 3.7 µM ([1]; MDA-MB-436, read-out: Inh % 1): -10.1%; inhibition at 11.11 µM ([1]; MDA-MB-436, read-out: Inh % 1): 0.536%; inhibition at 33.33 µM ([1]; MDA-MB-436, read-out: Inh % 1): 21.6%; inhibition at 100 µM ([1]; MDA-MB-436, read-out: Inh % 1): 68%; inhibition at 0.00508 µM ([1]; MDA-MB-436, read-out: Inh % 2): -5%; inhibition at 0.0152 µM ([1]; MDA-MB-436, read-out: Inh % 2): -7%; inhibition at 0.0457 µM ([1]; MDA-MB-436, read-out: Inh % 2): -13.4%; inhibition at 0.41 µM ([1]; MDA-MB-436, read-out: Inh % 2): -9.8%; inhibition at 1.23 µM ([1]; MDA-MB-436, read-out: Inh % 2): -9.1%; inhibition at 3.7 µM ([1]; MDA-MB-436, read-out: Inh % 2): -17.7%; inhibition at 11.11 µM ([1]; MDA-MB-436, read-out: Inh % 2): -6.9%; inhibition at 33.33 µM ([1]; MDA-MB-436, read-out: Inh % 2): 10.8%; inhibition at 100 µM ([1]; MDA-MB-436, read-out: Inh % 2): 46.7%; LogIC50 ([1]; MDA-MB-436, curve fit on Log (uM) concentrations): 1.87; Top ([1]; MDA-MB-436, curve fit parameter (Inh %), '= 100.0' is a constrained value): = 100.0; LogIC50 ([2]; CAPAN-1, curve-fit output, Log (uM)): 2.199; IC50 ([2]; Homo sapiens, CAPAN-1, 72 h, read-out: CAPAN-1 IC50 (μM)): > 100 µM; inhibition at 0.00508 µM [2, 3]: 4.5%; inhibition at 0.0152 µM [2, 3]: 16.3%; inhibition at 0.0457 µM [2, 3]: 5.6%; inhibition at 0.41 µM [2, 3]: 14.3%; inhibition at 1.23 µM [2, 3]: 11.4%; inhibition at 3.7 µM [2, 3]: 16.5%; inhibition at 11.11 µM [2, 3]: 22%; inhibition at 33.33 µM [2, 3]: 33.5%; inhibition at 100 µM [2, 3]: 47.6%; inhibition at 0.00508 µM [2, 4]: -5.2%; inhibition at 0.0152 µM [2, 4]: -0.0618%; inhibition at 0.0457 µM [2, 4]: 0.1%; inhibition at 0.41 µM [2, 4]: 8.8%; inhibition at 1.23 µM [2, 4]: 2.5%; inhibition at 3.7 µM [2, 4]: 5.4%; inhibition at 11.11 µM [2, 4]: -1.6%; inhibition at 33.33 µM [2, 4]: 14%; inhibition at 100 µM [2, 4]: 38.6%
